Measurements taken from EPA's ToxRefDB 2.

What was measured:
rat [1] = details: Subchronic oral toxicity in rodents, sprague dawley, Gavage/Intubation, dose end: 90 day, group: systemic
rat [2] = details: Multigenerational reproductive toxicity study, sprague dawley, Oral, Gavage/Intubation, dose end: 1 generation
rat [3] = details: Prenatal developmental toxicity study, sprague dawley, Oral, Gavage/Intubation, dose end: 20 GD
mouse [4] = details: Subchronic oral toxicity in rodents, b6c3f1, Feed, dose end: 15 week
rabbit = details: Prenatal developmental toxicity study, new zealand white, Oral, Gavage/Intubation, dose end: 19 GD
dog [5] = details: Chronic toxicity; beagle; Oral; Gavage/Intubation; dose end: 52 week; group: systemic; systemic / clinical chemistry / albumin / albumin + systemic / clinical chemistry / alkaline phosphatase (alp/alk) / alkaline phosphatase (…
rat [6] = details: Multigenerational reproductive toxicity study, sprague dawley, Oral, Feed, dose end: 2 generation
rat [7] = details: Combined chronic toxicity/carcinogenicity, sprague dawley, Oral, Feed, dose end: 104 week, group: systemic
rat [8] = details: Subchronic oral toxicity in rodents, other, Feed, dose end: 90 day, group: systemic
mouse [9] = details: Combined chronic toxicity/carcinogenicity, b6c3f1, Oral, Feed, dose end: 104 week, group: systemic
dog [10] = details: Subchronic oral toxicity in nonrodent, beagle, Gavage/Intubation, dose end: 13 week, group: systemic, systemic / hematology / mean corpuscular hemoglobin (mch) / mean corpuscular hemoglobin (mch) + systemic / hematology / mean corpuscular …
rat [11] = details: Prenatal developmental toxicity study, sprague dawley, Oral, Gavage/Intubation, dose end: 15 GD
rat [12] = details: Prenatal developmental toxicity study, sprague dawley, Oral, Gavage/Intubation, dose end: 15 GD; remark: listed apart in the source
mouse [13] = details: Carcinogenicity, cd1, Oral, Feed, dose end: 78 week, group: systemic
rat [14] = details: Combined chronic toxicity/carcinogenicity, sprague dawley, Oral, Feed, dose end: 24 month, group: systemic
rat [15] = details: Subchronic oral toxicity in rodents, sprague dawley, Feed, dose end: 13 week, group: systemic
rat [16] = details: Multigenerational reproductive toxicity study, sprague dawley, Oral, Gavage/Intubation, dose end: 2 generation
rat [17] = details: Subchronic oral toxicity in rodents, sprague dawley, Gavage/Intubation, dose end: 90 day, group: systemic; remark: listed apart in the source
[18] = systemic / clinical chemistry / peroxisomal beta-oxidation analysis / peroxisomal beta-oxidation analysis + systemic / organ weight / liver…
[19] = systemic / hematology / neutrophils / neutrophils
[20] = group: offspring, systemic / in life observation / body weight / offspring (pup) weight
[21] = group: parental, systemic / in life observation / body weight / body weight gain + systemic / in life observation / clinical signs / fur (altered appearance…
[22] = group: developmental, systemic / in life observation / body weight / fetal weight
[23] = group: maternal, systemic / in life observation / body weight / body weight + systemic / in life observation / body weight / body weight gain + systemic / in…
[24] = group: maternal, reproductive / reproductive performance / fertility / fertility
[25] = group: systemic, systemic / clinical chemistry / alkaline phosphatase (alp/alk) / alkaline phosphatase (alp/alk) + systemic / hematology / hematocrit (hct…
[26] = group: systemic, systemic / in life observation / food consumption / food consumption
[27] = group: developmental, systemic / in life observation / body weight / fetal weight + developmental / developmental malformation / bone / misshapen + developmental…
[28] = group: maternal, reproductive / reproductive performance / postimplantation loss / postimplantation loss + reproductive / reproductive performance / …
[29] = group: offspring, systemic / in life observation / body weight / offspring (pup) weight gain + systemic / in life observation / body weight / offspring (pup) …
[30] = group: parental, systemic / in life observation / body weight / body weight + systemic / in life observation / body weight / body weight gain
[31] = group: reproductive, reproductive / offspring survival early / litter size / litter size
[32] = group: reproductive, reproductive / offspring survival early / litter size / litter size + reproductive / reproductive performance / fertility / fertility
[33] = systemic / in life observation / body weight / body weight gain
[34] = systemic / in life observation / body weight / body weight gain + systemic / clinical chemistry / albumin / albumin + systemic / clinical …
[35] = systemic / clinical chemistry / albumin / albumin + systemic / clinical chemistry / alkaline phosphatase (alp/alk) / alkaline phosphatase (…
[36] = systemic / organ weight / kidney / relative to body weight + systemic / organ weight / kidney / absolute
[37] = group: developmental, developmental / developmental malformation / bone / absent
[38] = group: maternal, systemic / in life observation / body weight / body weight gain
[39] = group: developmental, developmental / developmental malformation / bone / incomplete ossification + developmental / developmental malformation / bone / split …
[40] = group: maternal, systemic / in life observation / body weight / body weight gain + systemic / in life observation / clinical signs / salivation + …
[41] = systemic / in life observation / food consumption / food consumption
[42] = systemic / in life observation / food consumption / food consumption + systemic / clinical chemistry / cholesterol / cholesterol + systemic…
[43] = group: offspring, systemic / organ weight / spleen / absolute
[44] = group: offspring, systemic / organ weight / spleen / absolute + systemic / pathology microscopic / kidney / edema + systemic / pathology microscopic / kidney…
[45] = group: parental, systemic / in life observation / body weight / body weight + systemic / in life observation / body weight / body weight gain + systemic / in…
[46] = systemic / clinical chemistry / albumin / albumin + systemic / clinical chemistry / protein / protein + systemic / pathology microscopic / …
[47] = systemic / organ weight / spleen / absolute + systemic / organ weight / spleen / relative to body weight + systemic / organ weight / spleen…

Compound O=C([O-])C(F)(F)C(F)(F)C(F)(F)C(F)(F)C(F)(F)F.[Na+] [Sodium perfluorohexanoate] has an LOAEL (rat [1]; [18]) greater than 500 mg/kg/day, an NOAEL (rat [1]; [18]) of no less than 500 mg/kg/day and an LEL (rat [1]; [19]) of 20 mg/kg/day. It also gave an NEL (rat [1]; [19]) of less than 20 mg/kg/day, an LEL (rat [2]; [20]) of 500 mg/kg/day and an LOAEL (rat [2]; [20]) greater than 500 mg/kg/day. For the same compound, the NEL (rat [2]; [20]) was 100 mg/kg/day, the NOAEL (rat [2]; [20]) was no less than 500 mg/kg/day and the LEL (rat [2]; group: parental, systemic / in life observation / body weight / body weight gain) was 100 mg/kg/day. It also gave an LOAEL (rat [2]; [21]) greater than 500 mg/kg/day, an NEL (rat [2]; [21]) of 20 mg/kg/day and an NOAEL (rat [2]; [21]) of no less than 500 mg/kg/day. The LEL (rat [3]; [22]) was 500 mg/kg/day, the LOAEL (rat [3]; [22]) was greater than 500 mg/kg/day and the NEL (rat [3]; [22]) was 100 mg/kg/day. The NOAEL (rat [3]; [22]) was no less than 500 mg/kg/day, the LEL (rat [3]; [23]) was 500 mg/kg/day and the LOAEL (rat [3]; [23]) was greater than 500 mg/kg/day. For the same compound, the NEL (rat [3]; [23]) was 100 mg/kg/day and the NOAEL (rat [3]; [23]) was no less than 500 mg/kg/day.
CON(C)C(=O)Nc1ccc(Oc2ccc3c(c2)OC(C)(OC)CC3(C)C)cc1 (stereo not drawn) [Metobenzuron] was tested, and the LEL (mouse [4]; [24]) was 308 mg/kg/day, the LOAEL (mouse [4]; [24]) was greater than 308 mg/kg/day and the NEL (mouse [4]; [24]) was 91 mg/kg/day. For the same compound, the NOAEL (mouse [4]; [24]) was no less than 308 mg/kg/day, the LOAEL (mouse [4]; [25]) was 91 mg/kg/day and the NOAEL (mouse [4]; [25]) was 20 mg/kg/day. For the same compound, the LEL (mouse [4]; [26]) was 25 mg/kg/day, the NEL (mouse [4]; [26]) was less than 25 mg/kg/day and the LOAEL (rabbit; [22]) was 100 mg/kg/day. It also gave an LEL (rabbit; [27]) of 100 mg/kg/day, an NEL (rabbit; [27]) of 50 mg/kg/day and an NOAEL (rabbit; [27]) of 50 mg/kg/day. The LEL (rabbit; [28]) was 100 mg/kg/day, the LOAEL (rabbit; [28]) was 100 mg/kg/day and the NEL (rabbit; [28]) was 50 mg/kg/day. The NOAEL (rabbit; [28]) was 50 mg/kg/day, the LEL (dog [5]) was 75 mg/kg/day and the LOAEL (dog [5]) was 75 mg/kg/day. The NEL (dog [5]) was 5 mg/kg/day, the NOAEL (dog [5]) was 5 mg/kg/day and the LOAEL (rat [6]; group: offspring, systemic / in life observation / body weight / offspring (pup) weight gain) was 18.8 mg/kg/day. For the same compound, the LEL (rat [6]; [29]) was 18.8 mg/kg/day, the NEL (rat [6]; [29]) was 3.75 mg/kg/day and the NOAEL (rat [6]; [29]) was 3.75 mg/kg/day. The LEL (rat [6]; [30]) was 18.8 mg/kg/day, the LOAEL (rat [6]; [30]) was 37.5 mg/kg/day and the NEL (rat [6]; [30]) was 3.75 mg/kg/day. The NOAEL (rat [6]; [30]) was 18.8 mg/kg/day, the LEL (rat [6]; [31]) was 18.8 mg/kg/day and the LOAEL (rat [6]; [31]) was 18.8 mg/kg/day. For the same compound, the NEL (rat [6]; [32]) was 3.75 mg/kg/day, the NOAEL (rat [6]; [32]) was 3.75 mg/kg/day and the LEL (rat [7]; systemic / in life observation / body weight / body weight) was 4.4 mg/kg/day. It also gave an LOAEL (rat [7]; [33]) of 23.1 mg/kg/day, an NEL (rat [7]; [34]) of 1.5 mg/kg/day and an NOAEL (rat [7]; [34]) of 4.4 mg/kg/day. The LEL (rat [8]; [33]) was 7.29 mg/kg/day, the LOAEL (rat [8]; [33]) was 45 mg/kg/day and the NEL (rat [8]; [33]) was less than 7.29 mg/kg/day. The NOAEL (rat [8]; [34]) was 6.05 mg/kg/day, the LOAEL (mouse [9]; [35]) was 139 mg/kg/day and the NOAEL (mouse [9]; [35]) was 41.1 mg/kg/day. The LEL (mouse [9]; [36]) was 6.9 mg/kg/day, the NEL (mouse [9]; [36]) was less than 6.9 mg/kg/day and the LEL (dog [10]) was 25 mg/kg/day. The LOAEL (dog [10]) was 25 mg/kg/day, the NEL (dog [10]) was 5 mg/kg/day and the NOAEL (dog [10]) was 5 mg/kg/day. For the same compound, the LEL (rat [11]; [37]) was 25 mg/kg/day, the NEL (rat [11]; [37]) was less than 25 mg/kg/day and the LOAEL (rat [11]; [22]) was 50 mg/kg/day. For the same compound, the NOAEL (rat [11]; group: developmental, systemic / in life observation / body weight / fetal weight + developmental / developmental malformation / bone / absent + developmental / …) was 25 mg/kg/day, the LEL (rat [11]; [38]) was 25 mg/kg/day and the LOAEL (rat [11]; [38]) was 25 mg/kg/day. The NEL (rat [11]; [38]) was less than 25 mg/kg/day and the NOAEL (rat [11]; [38]) was less than 25 mg/kg/day.
Compound CCSC(C)CC1CC(=O)C(C(CC)=NOC/C=C/Cl)=C(O)C1 (stereo not drawn) [Clethodim] has an LEL (rat [12]; group: developmental, developmental / developmental malformation / bone / absent + developmental / developmental malformation / mouth / jaw / maxillary …) of 100 mg/kg/day, an LOAEL (rat [12]; [39]) of 350 mg/kg/day and an NEL (rat [12]; [39]) of 10 mg/kg/day. For the same compound, the NOAEL (rat [12]; [39]) was 100 mg/kg/day, the LOAEL (rat [12]; group: maternal, systemic / in life observation / body weight / body weight gain + systemic / in life observation / clinical signs / salivation) was 350 mg/kg/day and the LEL (rat [12]; group: maternal, systemic / in life observation / body weight / body weight gain + systemic / in life observation / clinical signs / salivation + systemic / …) was 350 mg/kg/day. For the same compound, the NEL (rat [12]; [40]) was 100 mg/kg/day, the NOAEL (rat [12]; [40]) was 100 mg/kg/day and the LEL (mouse [13]; systemic / pathology microscopic / liver / adenoma + systemic / pathology microscopic / lung / adenoma + systemic / hematology / erythrocyte…) was 30 mg/kg/day. It also gave an NEL (mouse [13]; systemic / pathology microscopic / liver / adenoma + systemic / pathology microscopic / lung / adenoma + systemic / pathology microscopic / …) of 3 mg/kg/day, an LOAEL (mouse [13]; systemic / pathology microscopic / liver / hypertrophy + systemic / organ weight / liver / relative to body weight + systemic / organ weight…) of 150 mg/kg/day and an NOAEL (mouse [13]; systemic / pathology microscopic / liver / hypertrophy + systemic / pathology microscopic / liver / adenoma + systemic / hematology / …) of 30 mg/kg/day. It also gave an NOAEL (rat [14]; systemic / in life observation / body weight / body weight gain + systemic / organ weight / liver / absolute + systemic / pathology …) of 19 mg/kg/day, an LOAEL (rat [14]; systemic / in life observation / body weight / body weight gain + systemic / organ weight / liver / relative to body weight + systemic / …) of 100 mg/kg/day and an LEL (rat [14]; systemic / pathology microscopic / bone marrow / hypocellularity) of 0.64 mg/kg/day. For the same compound, the NEL (rat [14]; systemic / pathology microscopic / bone marrow / hypocellularity + systemic / in life observation / body weight / body weight + systemic / …) was 0.18 mg/kg/day, the LEL (rat [15]; [41]) was 25 mg/kg/day and the LOAEL (rat [15]; [41]) was 25 mg/kg/day. The NEL (rat [15]; [42]) was 2.3 mg/kg/day and the NOAEL (rat [15]; [42]) was 2.3 mg/kg/day.
O=S(=O)([O-])C(F)(F)C(F)(F)C(F)(F)C(F)(F)F.[K+] [PFBS-K] was tested, and the LEL (rat [16]; [43]) was 30 mg/kg/day, the NEL (rat [16]; [43]) was less than 30 mg/kg/day and the LOAEL (rat [16]; [44]) was greater than 1000 mg/kg/day. It also gave an NOAEL (rat [16]; [44]) of no less than 1000 mg/kg/day, an LOAEL (rat [16]; [45]) greater than 1000 mg/kg/day and an NEL (rat [16]; [45]) of 100 mg/kg/day. It also gave an NOAEL (rat [16]; [45]) of no less than 1000 mg/kg/day, an LEL (rat [16]; group: parental, systemic / pathology microscopic / kidney / edema + systemic / pathology microscopic / kidney / hyperplasia + systemic / organ weight / …) of 300 mg/kg/day and an LOAEL (rat [17]; [46]) greater than 600 mg/kg/day. It also gave an NOAEL (rat [17]; [46]) of no less than 600 mg/kg/day, an LEL (rat [17]; [47]) of 60 mg/kg/day and an NEL (rat [17]; [47]) of less than 60 mg/kg/day.
